Values of other authors in patent publication US20080146444A1, “Method and compositions for improving plant growth” (Polymer Ventures, Inc., priority 2006, published 2008).

Key:
Xylella fastidiosa = conditions: 62.5 ppm
cucumber seed radicle = conditions: levels as low as 7-174 ppm (0.00002 M to 0.0005 M)
plant = conditions: applied at 14 ppm to 1400 ppm (0.1-10 millimolar)

Compound: CC(C)=CCCC(C)=CC=O [citral]
- kill of Xylella fastidiosa (Xylella fastidiosa): incomplete kill

Compound: CC(C)C1CCC(C)(O)C([N+](C)(C)C2CCCC2)C1.[Br-] (stereo not shown) [cyclopentyl dimethyl (1-hydroxy-p-menth-2-yl)ammonium bromide]
- cucumber seed radicle growth (cucumber seed radicle): inhibited

Compound: C=C(C)[C@H]1CC=C(C)CC1 [limonene]
- plant primary root growth (plant): no improvement
- seed germination (plant): no improvement
